Measured values from patent US20250019368A1, “COMPOUND AND PRODUCTION METHOD THEREOF, POLYMERIZABLE COMPOSITION, RESIN COMPOSITION, POLYMER, CURED SUBSTANCE, AND LAMINATE” (FUJIFILM Corporation, priority 2022, published 2025).

Columns and labels:
Format in all cases: physicochemical
[1] = Solubility in ethyl acetate, visual check for undissolved residue; conditions: 20.0 mg in 2 mL ethyl acetate, stirred at 40° C. for 10 minutes; no residue means solubility 1% by mass or more
Procedure: The solubility of each compound of Examples 1 to 3 and Comparative Examples 1 to 3 in an organic solvent was measured according to the following procedure.
20.0 mg of the compound was weighed and placed in a container, 2 mL of ethyl acetate was added thereto, and the mixture was stirred at 40° C. for 10 minutes. After the stirring, the presence or absence of undissolved residue of the compound was visually observed. The fact that no undissolved residue of the compound was observed means that the solubility of the compound was 1% by mass or more.

[2] = Absorption spectrum of the compound in chloroform solution (spectral characteristics); conditions: 5×10^−6 mol/L, 1 cm cell; for ε (molar absorption coefficient): at λmax
Procedure: An absorption spectrum of each of the compounds of Examples 1 to 3 and Comparative Examples 1 to 3 was measured according to the following procedure, and the maximal absorption wavelength ([…]), the molar absorption coefficient ([…]), and the width of the absorption spectrum at an absorbance corresponding to ½ of the maximum absorbance (that is, the half-width) were obtained.
Using chloroform as a solvent, a solution in which the compound was dissolved was prepared such that the concentration of the compound in the chloroform was 5×10^−6 mol/L (liter; the same applies hereinafter). Each prepared solution was put into a 1 cm cell, and an absorption spectrum was measured using a spectrophotometer [product name: U-4100, manufactured by Hitachi, Ltd.] as a measurement device.

[3] = Solubility in the organic solvents of the polymerizable composition; conditions: solvent (1) propylene glycol monomethyl ether acetate and solvent (2) cyclohexanone, polymerizable composition P4
Excerpt: A polymerizable composition P4 was obtained in the same manner as in the preparation of the polymerizable composition P1, except that, in the preparation of the polymerizable composition P1, the “exemplary compound 1-13” was changed to the “comparative compound R-3”.
A cured film E4 was obtained in the same manner as in the production of the cured film E1, except that, in the production of the cured film E1, the “polymerizable composition P1” was changed to the “polymerizable composition P4”. However, since the “comparative compound R-3” had extremely low solubility in the organic solvent [that is, the solvent (1) and the solvent (2)], the obtained photocured film D4 and cured film E4 were not films that could be evaluated for the spectral characteristics, so that the following evaluation tests were not performed.

Structure (SMILES) | Solubility in ethyl acetate (presence or absence of undissolved residue) [1] | Half-width (width of absorption spectrum at ½ of maximum absorbance) [2] [nm] | λmax (maximal absorption wavelength) [2] [nm] | ε (molar absorption coefficient) [2] | Solubility in the organic solvent [3]
C=C(C)C(=O)OCCOC(=O)C1=C(C)/C(=C2\C(=O)C(c3[nH]c(C)c(CC)c3C)=C2O)N=C1C [Exemplary compound 1-13] | completely dissolved | 25 | 556 | 185,000 L/(mol · cm) | –
C=Cc1ccc(Cn2c(C)c(CC)c(C)c2C2=C([O-])/C(=C3/C(C)=C(CC)C(C)=[N+]3Cc3ccc(C=C)cc3)C2=O)cc1 [Exemplary compound 1-30] | completely dissolved | 29 | 591 | 158,000 L/(mol · cm) | –
CCC1=C(C)/C(=C2\C(=O)C(c3[nH]c(C)c(CC)c3C)=C2O)N=C1C [R-1] | not completely dissolved | 23 | 564 | 238,000 L/(mol · cm) | –
C=C(C)C(=O)OCCN(CCOC(=O)C(=C)C)c1ccc(C2=C([O-])/C(=C3\C=CC(=[N+](CCOC(=O)C(=C)C)CCOC(=O)C(=C)C)C=C3NC(C)=O)C2=O)c(NC(C)=O)c1 [R-2] | not completely dissolved | 27 | 667 | 363,000 L/(mol · cm) | –
CCN(CC)c1ccc(C2=C([O-])/C(=C3\C=CC(=[N+](CC)CC)C=C3NC(C)=O)C2=O)c(NC(C)=O)c1 [R-3] | not completely dissolved | 27 | 676 | 356,000 L/(mol · cm) | extremely low
